# From patent US7981893B2, “Heteroaryl compounds, compositions thereof, and methods of treatment therewith” (Signal Pharmaceuticals, LLC, priority 2006, dated 2011)
# Key:
# [1] = molecular target: T1, mTOR (Homo sapiens, UniProt P42345); assay: mTOR HTR-FRET Assay; type: biochemical; conditions: HTR-FRET screening assay, GST-p70S6 kinase fragment substrate
# T1 construct: Dilute TOR fraction 1:14 in “Simple TOR Buffer”
# Protocol: The following is an example of an assay that can be used to determine the mTOR inhibitory activity of a test compound. Reagents are prepared as follows:
# “Simple TOR buffer” (used to dilute high glycerol TOR fraction): 10 mM Tris pH 7.4, 100 mM NaCl, 0.1% Tween-20, 1 mM DTT (from 1M stock frozen at −20° C. just prior to use). For convenience a large quantity of “Simple TOR buffer” w/o DTT can be stored at 4° C. It can be brought to room temperature and DTT added just prior to dilution of TOR fraction.
# 5×KB/5×Mn/5×ATP solution (used to dilute substrate GST-p70S6kin 81 a.a. just prior to use) (40 ml screen quantity shown):
# Enzyme solution: Dilute TOR fraction 1:14 in “Simple TOR Buffer”. For current lot that is 640 μg/ml TOR fraction diluted 14× to yield 45.7 μg/ml TOR in buffer (i.e. 7.85 ml TOR pooled fraction+102.1 ml Simple TOR buffer=110 ml 14× diluted TOR fraction). Each Enzyme Lot must be QC'd prior to assay.
# Substrate solution: This may be prepared just prior to assay if preferred. Dilute 5.3 mg/ml GST-p70S6kinase fragment stock to 3.5 μg/ml (97 nM) working stock in 5×KB/5×Mn/5×ATP solution (i.e. 26.41 μL (5.3 mg/ml) GST-p70S6+40 ml 5×KB/5×Mn/5×ATP=40 ml 3.5 μg/ml (97 nM)).
# Assay Buffer (for dilution of Antibodies used in Antibody Detection Reagent):
# Antibody Detection Reagent (this reagent should be made just prior to addition to Assay Plates):
# Using PlateTrak program (Screen) or Matrix Pipettor (SAR), 19.5 μL of diluted TOR fraction is added to assay plate in all test, reference or positive control wells. 19.5 μL of “Simple TOR buffer” is added to all negative control wells. If treating multiple plates with the same compounds, can increase volume of enzyme to multiples of 19.5 μL in a tall 384 well polypropylene plate.
# Using EP3, 0.5 μl of test, reference or control DMSO is added to each well with mixing. Plates are incubated for 30 minutes at room temperature.
# Using PlateTrak program (Screen) or Matrix Pipettor (SAR) 5 μL of 5×KB/5×Mn/5×ATP/5× substrate solution is added to each well of the assay plate to start the reaction. The solutions are mixed well and incubated for 2 hours at room temperature.
# Using PlateTrak program (Screen) or Matrix Pipettor (SAR) 5 μL of 60 mM EDTA is added to stop the reaction. The solutions are mixed well and allowed to sit for 15-20 minutes before the next step.
# Using PlateTrak program (Screen) or Matrix Pipettor (SAR) 10 μl of Antibody Detection Reagent is added. The solutions are mixes well and incubated for 5 hours to O/N to allow antibodies to form complexes with phosphorylated substrate.
# Plates are read on AnalystHT using protocol Multi-Method protocol.
# [2] = molecular target: T2, PKCθ (Homo sapiens, UniProt Q04759); assay: PKCθ IMAP Assay; type: biochemical; conditions: IMAP fluorescence polarization screening assay, 35 μM ATP
# T2 construct: purchased Invitrogen
# T2 sequence (Q04759 whole entry): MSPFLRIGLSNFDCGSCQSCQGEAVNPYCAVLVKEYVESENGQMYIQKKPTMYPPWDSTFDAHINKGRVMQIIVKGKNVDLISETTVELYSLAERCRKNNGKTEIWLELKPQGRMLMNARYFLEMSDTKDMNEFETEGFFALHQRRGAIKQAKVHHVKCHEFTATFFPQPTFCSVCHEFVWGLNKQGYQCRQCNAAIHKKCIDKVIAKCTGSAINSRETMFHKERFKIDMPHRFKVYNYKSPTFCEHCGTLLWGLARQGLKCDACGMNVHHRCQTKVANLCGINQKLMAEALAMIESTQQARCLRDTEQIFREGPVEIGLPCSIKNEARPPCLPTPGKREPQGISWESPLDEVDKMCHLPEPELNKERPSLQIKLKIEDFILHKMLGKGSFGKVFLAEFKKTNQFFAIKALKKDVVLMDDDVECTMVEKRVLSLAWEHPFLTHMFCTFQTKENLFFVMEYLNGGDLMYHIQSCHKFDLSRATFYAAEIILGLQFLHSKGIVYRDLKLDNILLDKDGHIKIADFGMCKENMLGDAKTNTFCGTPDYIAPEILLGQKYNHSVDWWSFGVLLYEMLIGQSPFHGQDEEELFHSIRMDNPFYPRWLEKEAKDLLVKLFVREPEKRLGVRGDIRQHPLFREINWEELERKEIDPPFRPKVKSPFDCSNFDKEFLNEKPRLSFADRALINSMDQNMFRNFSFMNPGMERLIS
# Protocol: The following is an example of an assay that can be used to determine the PKCθ inhibitory activity of a test compound. Reagents are prepared as follows:
# Assay Buffer: 50 mM HEPES (pH 7.6), 10 mM MgCl, 0.1 mM EDTA, 5 mM MBP, 0.01% Triton, 1 mM DTT, 0.05 mg/ml phosphatidyl serine, 0.05 mg/ml diacylglycerol.
# The final concentration of PKCθ (Invitrogen) is 0.5 nM. The final concentration of substrate (FAM-AKRRRLSSLRA) (Molecular Devices) is 100 nM. The final concentration of ATP in the reaction is 35 μM. The final concentration of DMSO in the reaction is 2.5%.
# Enzyme is kept in 5 μl aliquots and stored at −80° C. prior to use. Test compound is allowed to pre-incubate with enzyme for 45 minutes before the reactions is initiated.
# The reaction mixture consists of: 5 μl of test compound in 10% DMSO, 5 μl of 400 nM substrate (FAM-AKRRRLSSLRA), 5 μl of […] PKCθ, and 5 μl of 140 μM ATP (ATP is added to the reaction mixture last to initiate the reaction) per well.
# The reaction is allowed to proceed for 60 minutes and is terminated by adding 30 μl per well of 90% Progressive A buffer/10% Progressive B buffer and a 1:400 dilution of binding beeds (Molecular Devices).
# The reaction is given a binding incubation time of at least 30 minutes prior to reading the fluorescence polarization signal on an Analyst reader (the following detector settings are used: fluorescein excitation-485 nm, fluorescein emission-530 nm, fluorescein dichroic-505 nm).
IC50 [1],IC50 [2],Compound
> 30 µM,> 30 µM,"C[C@H](c1ccccc1)n1c(=O)[nH]c2cnc(-c3cccc4ncccc34)cc21 [Compound 24, (R)-1-(1-phenylethyl)-6-(quinolin-5-yl)-1H-imidazo[4,5-c]pyridin-2(3H)-one]"
> 30 µM,5.1 to 10 µM,"CC(c1ccccc1)n1c(=O)[nH]c2ccc(-c3cccc4ncccc34)nc21 (stereo not drawn) [Compound 26, 3-(1-phenylethyl)-5-(quinolin-5-yl)-1H-imidazo[4,5-b]pyridin-2(3H)-one]"
> 30 µM,5.1 to 10 µM,"C[C@H](c1ccccc1)n1c(=O)[nH]c2ccc(-c3cccc4ncccc34)nc21 [Compound 27, (R)-3-(1-phenylethyl)-5-(quinolin-5-yl)-1H-imidazo[4,5-b]pyridin-2(3H)-one]"
10.1 to 20 µM,10.1 to 20 µM,"O=c1[nH]c2ncc(-c3cccc4ncccc34)nc2n1[C@@H](CO)c1ccccc1 [Compound 40, (R)-1-(2-hydroxy-1-phenylethyl)-6-(quinolin-5-yl)-1H-imidazo[4,5-b]pyrazin-2(3H)-one]"
> 30 µM,0.1 to 5 µM,"CC[C@H](c1ccccc1)n1c(=O)[nH]c2ncc(-c3cccc4ncccc34)nc21 [Compound 45, (R)-1-(1-phenylpropyl)-6-(quinolin-5-yl)-1H-imidazo[4,5-b]pyrazin-2(3H)-one]"
0.1 to 5 µM,> 30 µM,"COc1cccc(Cn2c(=O)[nH]c3ncc(-c4cccc5ncccc45)nc32)c1 [Compound 47, 1-(3-methoxybenzyl)-6-(quinolin-5-yl)-1H-imidazo[4,5-b]pyrazin-2(3H)-one]"
0.1 to 5 µM,10.1 to 20 µM,"O=c1[nH]c2ncc(-c3cccc4ncccc34)nc2n1CC1CCCC1 [Compound 50, 1-(cyclopentylmethyl)-6-(quinolin-5-yl)-1H-imidazo[4,5-b]pyrazin-2(3H)-one]"
5.1 to 10 µM,5.1 to 10 µM,"CC(c1ccccc1F)n1c(=O)[nH]c2ncc(-c3cccc4ncccc34)nc21 (stereo not drawn) [Compound 51, 1-(1-(2-fluorophenyl)ethyl)-6-(quinolin-5-yl)-1H-imidazo[4,5-b]pyrazin-2(3H)-one]"
5.1 to 10 µM,0.1 to 5 µM,"CC(c1cccc(F)c1)n1c(=O)[nH]c2ncc(-c3cccc4ncccc34)nc21 (stereo not drawn) [Compound 54, 1-(1-(3-fluorophenyl)ethyl)-6-(quinolin-5-yl)-1H-imidazo[4,5-b]pyrazin-2(3H)-one]"

# The next lines start with the molecule.
Compound,IC50 [1],IC50 [2]
"C[C@@H](c1ccccc1)n1c(=O)[nH]c2cnc(-c3cccc4ncccc34)cc21 [Compound 25, (S)-1-(1-phenylethyl)-6-(quinolin-5-yl)-1H-imidazo[4,5-c]pyridin-2(3H)-one]",> 30 µM,> 30 µM
"O=c1[nH]c2ncc(-c3cccc4ncccc34)nc2n1[C@H](CO)c1ccccc1 [Compound 41, (S)-1-(2-hydroxy-1-phenylethyl)-6-(quinolin-5-yl)-1H-imidazo[4,5-b]pyrazin-2(3H)-one]",5.1 to 10 µM,0.1 to 5 µM
"CC(c1ccc(F)cc1)n1c(=O)[nH]c2ncc(-c3cccc4ncccc34)nc21 (stereo not drawn) [Compound 52, 1-(1-(4-fluorophenyl)ethyl)-6-(quinolin-5-yl)-1H-imidazo[4,5-b]pyrazin-2(3H)-one]",5.1 to 10 µM,0.1 to 5 µM
"O=c1[nH]c2ncc(-c3cccc4ncccc34)nc2n1C1CCCC1 [Compound 53, 1-cyclopentyl-6-(quinolin-5-yl)-1H-imidazo[4,5-b]pyrazin-2(3H)-one]",5.1 to 10 µM,> 30 µM
"COc1cccc(C(C)n2c(=O)[nH]c3ncc(-c4cccc5ncccc45)nc32)c1 (stereo not drawn) [Compound 55, 1-(1-(3-methoxyphenyl)ethyl)-6-(quinolin-5-yl)-1H-imidazo[4,5-b]pyrazin-2(3H)-one]",5.1 to 10 µM,0.1 to 5 µM
"COc1ccc(C(C)n2c(=O)[nH]c3ncc(-c4cccc5ncccc45)nc32)cc1 (stereo not drawn) [Compound 56, 1-(1-(4-methoxyphenyl)ethyl)-6-(quinolin-5-yl)-1H-imidazo[4,5-b]pyrazin-2(3H)-one]",> 30 µM,0.1 to 5 µM
